Test results taken from patent US12029682B2, “Spray ejector mechanisms and devices providing charge isolation and controllable droplet charge, and low dosage volume ophthalmic administration” (EYENOVIA, INC., priority 2012, dated 2024).

Assay: Pharmacokinetic study: acid of latanoprost in aqueous humor (AH) by HPLC
Assay type: in vivo, beagle dog
Details: delivered by the spray ejector device
Method: Eight normal laboratory beagles were chosen for this study. Conditions for inclusion included normal overall health and normal ophthalmic state as determined by gross eye exam by a boarded veterinary ophthalmologist. Pre- and post-dosing mass deposition calibrations of the spray device were consistently within 10% of the intended dose of 9 μl. A 9.0 μl dose of a commercially available prostaglandin pro-drug, latanoprost, was instilled topically in two eyes of each of eight normotensive beagle dogs using the spray ejector device. Levels of the acid of latanoprost were measured in aqueous humor (AH) obtained by aqueocentesis over a 7-hour period each day for 5 days. This protocol was repeated for latanoprost 0.005% delivered by eyedropper (average dose 26 μl).
All dogs received a washout and acclimation period of two weeks. In Week 1, all animals were assigned to a group, with two animals each in Groups 1, 2, 4, and 7. […] IOP and PD were measured while the topical anesthetic took effect. […]
Week 3 followed the Week 1 protocol, with the substitution of eyedropper-delivered 0.005% latanoprost at an average dose of 26 μl at time 0. […] All AH samples were frozen to −80° C., stored overnight on dry ice, and then analyzed for the acid of latanoprost using a latanoprost-specific HPLC methodology. […]

CC(C)OC(=O)CCC/C=C\C[C@@H]1[C@@H](CC[C@@H](O)CCc2ccccc2)[C@H](O)C[C@@H]1O [latanoprost]
absorption rate vs eyedropper-delivered drug in higher doses: three-fold
